Read-outs that look alike come from different tables or passages of the source.

This is an account of results in PMC8587000, “Pyridinone Derivatives as Interesting Formyl Peptide Receptor (FPR) Agonists for the Treatment of Rheumatoid Arthritis” (Molecules, 2021).

The subject of series [1] is CFA-treated rats. Description: Paw pressure test in CFA-induced inflammatory arthritis. It counts as in vivo, rat. The following applies: 10 mg/kg p.o. daily for 7 days, day 8 (24 h after last dose), CFA + vehicle 35.2 ± 1.6 g, sham + vehicle 66.4 ± 2.3 g, mean ± SEM, five rats. Here is the method:
(§1) Male Sprague Dawley rats (Envigo, Varese, Italy) weighing approximately 200–250 g at the beginning of the experimental procedure were used. Animals were housed in Ce.S.A.L. (Centro Stabulazione Animali da Laboratorio, University of Florence) and used at least one week after their arrival. Four rats were housed per cage (size 26 × 41 cm^2); animals were fed a standard laboratory diet, given tap water ad libitum, and kept at 23 ± 1 °C with a 12 h light/dark cycle, light at 7 a.m. All animal manipulations were carried out according to the Directive 2010/63/EU of the European parliament and of the European Union council (22 September 2010) on the protection of animals used for scientific purposes. The ethical policy of the University of Florence complies with the Guide for the Care and Use of Laboratory Animals of the US National Institutes of Health (NIH Publication No. 85–23, revised 1996; University of Florence assurance number: A5278-01). Formal approval to conduct the experiments described was obtained from the Italian Ministry of Health (No. 517/2017, 06/04/2017) and from the Animal Subjects Review Board of the University of Florence. Experiments involving animals have been reported according to ARRIVE guidelines. […]
Nociceptive threshold was determined with an analgesimeter (Ugo Basile, Varese, Italy). […]

Series [2] relates to CFA-treated rats. Nature of the series: Incapacitance test in CFA-induced inflammatory arthritis. Type of series: in vivo, rat. The note with it: 10 mg/kg p.o. daily for 7 days, day 8, CFA + vehicle 57.2 ± 4.0 g, sham + vehicle 3.6 ± 2.5 g, mean ± SEM, five rats. Here is the method: as §1, with “A5278-01).” for “A5278-01). Formal approval to conduct the experiments described was obtained from the Italian Ministry of Health (No. 517/2017, 06/04/2017) and from the Animal Subjects Review Board of the University of Florence. Experiments involving animals have been reported according to ARRIVE guidelines.”
Weight bearing changes were measured using an Incapacitance Apparatus (Linton Instrumentation, UK), detecting changes in postural equilibrium after a hind limb injury. […] Data are expressed as the difference between the weight applied to the limb contralateral to the injury and the weight applied to the ipsilateral one (Δ weight).

Series [3] concerns human neutrophils (hPMN). Set-up: method as in PMID 32388428. The note with it: Ca2+ mobilization; cited from earlier work. A general note: Calcium flux is commonly read through the fluorescence of an indicator in the cells.
For series [4], the system named is rat model of rheumatoid arthritis. Set-up: method as in PMID 32388428. The following applies: dose of 30 mg/kg/day; cited from earlier work.
The target in series [5] is T1, FPR2 (Homo sapiens, UniProt P25090).
T1 construct: expressed in transfected cells; host or cells: HL60 (human promyelocytic leukemia), stably transfected; gift from Dr. Marie-Josephe Rabiet
T1 sequence (P25090 1-351): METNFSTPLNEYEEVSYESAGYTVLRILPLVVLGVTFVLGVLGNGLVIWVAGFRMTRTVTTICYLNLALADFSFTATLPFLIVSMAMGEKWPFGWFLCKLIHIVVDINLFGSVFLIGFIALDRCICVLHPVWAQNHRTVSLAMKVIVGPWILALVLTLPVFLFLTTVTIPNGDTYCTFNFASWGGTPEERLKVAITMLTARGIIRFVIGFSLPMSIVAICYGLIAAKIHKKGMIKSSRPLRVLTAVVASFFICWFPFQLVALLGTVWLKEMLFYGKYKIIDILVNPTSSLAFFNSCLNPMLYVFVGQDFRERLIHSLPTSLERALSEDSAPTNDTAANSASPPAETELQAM
Description: Ca2+ mobilization in FPR2-transfected HL60 cells. Type of series: cell-based. The following applies: for selectivity index (SI) FPR1/FPR2: ratio of EC50 FPR1-HL60 / FPR2-HL60; for Emax: HL-60, read-out: FPR2-HL60 Efficacy (converted).
Description: (§2) Human promyelocytic leukemia HL60 cells stably transfected with FPR1 (FPR1-HL60 cells) or FPR2 (FPR2-HL60 cells) (kind gift from Dr. Marie-Josephe Rabiet, Université Joseph Fourier, Grenoble, France) were cultured in RPMI 1640 medium supplemented with 10% heat-inactivated fetal calf serum, 10 mM HEPES, 100 μg/mL streptomycin, 100 U/mL penicillin, and G418 (1 mg/mL). G418 was removed in the last round of culture before assays were performed.

Series [6] concerns the target T2, FPR1 (Homo sapiens, UniProt P21462).
T2 construct: expressed in transfected cells; host or cells: HL60 (human promyelocytic leukemia), stably transfected; gift from Dr. Marie-Josephe Rabiet
T2 sequence (P21462 1-350): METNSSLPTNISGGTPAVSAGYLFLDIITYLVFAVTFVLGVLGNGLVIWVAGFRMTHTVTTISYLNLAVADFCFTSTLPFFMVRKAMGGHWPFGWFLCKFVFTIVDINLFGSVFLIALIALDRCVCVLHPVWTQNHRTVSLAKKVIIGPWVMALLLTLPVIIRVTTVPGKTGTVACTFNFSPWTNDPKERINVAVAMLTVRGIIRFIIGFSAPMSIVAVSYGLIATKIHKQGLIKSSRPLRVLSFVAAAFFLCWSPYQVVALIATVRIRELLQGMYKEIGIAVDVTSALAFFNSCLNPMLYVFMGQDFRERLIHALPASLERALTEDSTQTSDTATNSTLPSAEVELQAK
Set-up: method as in PMID 32388428. The note with it: Ca2+ mobilization; read-out: FPR1-HL60 EC50; cited from earlier work.

Series [7] addresses T1, FPR2. Set-up: method as in PMID 32388428. The following applies: Ca2+ mobilization; read-out: FPR2-HL60 EC50; cited from earlier work.
The test system of series [8] is model of antigen-induced arthritis. Details: method as in PMID 33493655, PMID 30419493. The following applies: increasing neutrophil apoptosis and efferocytosis; cited from earlier work.
Series [9] has as its target T2, FPR1. Nature of the series: Ca2+ mobilization in FPR1-transfected HL60 cells. The note with it: for Emax: HL-60, read-out: FPR1-HL60 Efficacy (converted). It counts as cell-based.
Description: as §2
Series [10] relates to human neutrophils (hPMN). Nature of the series: Ca2+ mobilization in human neutrophils (hPMN). It counts as cell-based. The note with it: Neutrophil; for Emax: read-out: hPMN Efficacy (converted). An excerpt:
Blood was collected from healthy donors in accordance with a protocol approved by the Institutional Review Board at Montana State University. Neutrophils were purified from the blood using dextran sedimentation, followed by Histopaque 1077 gradient separation and hypotonic lysis of red blood cells. Isolated neutrophils were washed twice and resuspended in HBSS^-. Neutrophil preparations were routinely >95% pure, as determined by light microscopy, and >98% viable, as determined by trypan blue exclusion.
Changes in intracellular Ca^2+ were measured with a FlexStation II scanning fluorometer (Molecular Devices, Sunnyvale, CA, USA). The cells, suspended in Hank’s balanced salt solution without Ca^2+ and Mg^2+ but with 10 mM HEPES (HBSS^−), were loaded with 1.25 μg/mL Fluo-4 AM dye and incubated for 30 min in the dark at 37 °C. After dye loading, the cells were washed with HBSS^- containing 10 mM HEPES, resuspended in HBSS^+ containing Ca^2+, Mg^2+, and 10 mM HEPES (HBSS^+), and aliquoted into the wells of flat-bottom, half-area-well black microtiter plates (2 × 10^5 cells/well). For the evaluation of direct agonist activity, compounds of interest were added from a source plate containing dilutions of test compounds in HBSS^+, and changes in fluorescence were monitored (λex = 485 nm, λem = 538 nm) every 5 s for 240 s at room temperature after the automated addition of compounds. Maximum change in fluorescence during the first 3 min, expressed in arbitrary units over baseline, was used to determine a response. […] Curve fitting (5–6 points) and calculation of median effective inhibitory concentrations (IC50) were performed by nonlinear regression analysis of the dose–response curves generated using Prism 9 (GraphPad Software, Inc., San Diego, CA, USA).

Series [11] has as its system animal models (collagen-induced and antigen-induced arthritis) of RA. Details: method as in PMID 16697190, PMID 29879657. The following applies: dose of 30 mg/kg (i.p.); cited from earlier work.

Broadly, the EC50 is the midpoint of the concentration-response curve. With `COc1cccc(-c2cc(C#N)c(=O)n(CC(=O)Nc3ccc(Br)cc3)c2C)c1` [AMC3], in the series with CFA-treated rats [1], the “pain threshold (paw pressure test)” value is on record as 52.4 ± 2.8 g. Moreover, the “postural unbalance, Δ Weight (incapacitance test)” value in the series with CFA-treated rats [2] was 34.6 ± 3.8 g. Moreover, the EC50 in the series on human neutrophils (hPMN) [3] was 390 ± 170 nM. The “effect on pain hypersensitivity” value in series [4] is “completely control pain hypersensitivity”.

For the molecule `CCOC(=O)c1cc(C#N)c(=O)n(CC(=O)Nc2ccc(Br)cc2)c1C` [AMC4, reference compound], the “selectivity index (SI) FPR1/FPR2” value on FPR2 [5] is recorded as 8. For the same molecule, the EC50 on FPR1 [6] is 3000 ± 400 nM; on FPR2 [7], 380 ± 90 nM; with human neutrophils (hPMN) [3], 830 ± 240 nM.

Consider `CCC[C@@H](O)c1c(/C=C/[C@@H](O)[C@@H](O)CCCC(=O)OC)nc(C)n1C` [AT-01-KG], for which the anti-inflammatory activity entry in [8] is reported as “anti-inflammatory activity”.

As usually defined, the melting point is the temperature of the solid-liquid transition. On to `CCCNC(=O)c1cc(C#N)c(=O)n(CC(=O)Nc2ccc(Br)cc2)c1C` [Compound 8c, 1-{2-[(4-bromophenyl)amino]-2-oxoethyl}-5-cyano-2-methyl-6-oxo-N-propyl-1,6-dihydropyridine-3-carboxamide], for which the melting point is 274 to 276 °C (dec.). Moreover, at FPR1 [9], the midpoint of the response, the EC50, lay at 7 ± 0.7 µM and the Emax was 120%. In addition, on FPR2 [5], the response was half-maximal at 1300 ± 100 nM (EC50) and the Emax was 135%. Moreover, in the series with human neutrophils (hPMN) [10], the EC50 amounted to 7.2 ± 1.6 µM and the Emax is 70%.

`CCCCNC(=O)c1cc(C#N)c(=O)n(CC(=O)Nc2ccc(Br)cc2)c1C` [Compound 8d, 1-{2-[(4-Bromophenyl)amino]-2-oxoethyl}-N-butyl-5-cyano-2-methyl-6-oxo-1,6-dihydropyridine-3-carboxamide]: the melting point is 261 to 263 °C (dec.). In addition, at FPR1 [9], the response was half-maximal at 9.1 ± 1.4 µM (EC50) and the Emax is 140%. Further, on FPR2 [5], the EC50 came to 1000 ± 400 nM, the Emax was 130% and the “selectivity index (SI) FPR1/FPR2” value is on record as 9. Besides, in the series on human neutrophils (hPMN) [10], the half-maximal effective concentration (EC50) is 4 ± 0.9 µM and the Emax was 70%.

With `Cc1c(C(=O)N(C)C)cc(C#N)c(=O)n1CC(=O)Nc1ccc(Br)cc1` [Compound 8e, 1-{2-[(4-Bromophenyl)amino]-2-oxoethyl}-5-cyano-N,N,2-trimethyl-6-oxo-1,6-dihydropyridine-3-carboxamide], the melting point fell in the range of 122 to 124 °C. Also, on FPR1 [9], a half-maximal effect (EC50) was put at 18 ± 3.5 µM and the Emax was 110%. Moreover, on FPR2 [5], the EC50 came to 2400 ± 1200 nM, the Emax is 150% and the “selectivity index (SI) FPR1/FPR2” value was 7.5. In addition, in the series with human neutrophils (hPMN) [10], it took 20.8 ± 4.8 µM to reach a half-maximal effect (EC50) and the Emax is 110%.

As for `Cc1c(-c2cccc(O)c2)cc(C#N)c(=O)n1CC(=O)Nc1ccc(Br)cc1` [Compound 14a, N-(4-Bromophenyl)-2-[3-cyano-5-(3-hydroxyphenyl)-6-methyl-2-oxopyridin-1(2H)-yl] acetamide], the melting point is 282 to 284 °C (dec.). In addition, on FPR1 [9], a half-maximal effect (EC50) was put at 0.23 ± 0.06 µM and the Emax is 115%. Also, on FPR2 [5], the EC50 was found to be 230 ± 20 nM and the Emax is 150%. Moreover, in the series with human neutrophils (hPMN) [10], the EC50 is 3.7 ± 0.7 µM and the Emax is 130%.

With `CC(C)c1c(NC(=O)Nc2ccc(Cl)cc2)c(=O)n(-c2ccccc2)n1C` [Cpd43], in series [11], the “effect on arthritis (tissue inflammation, cartilage damage, synovitis)” value is “significantly reducing the tissue inflammation, cartilage damage, and synovitis”.
